# Tests used:
# [1] = test system: amyloid plaques; assay: Autoradiography using postmortem brain section of patient with Alzheimer's disease (Example 7); type: binding, human (Alzheimer's disease patient); conditions: brain section (temporal lobe) of Alzheimer's disease patient; 0.37 MBq/100 μL, 1 hour
# Procedure: A postmortem autopsy brain section (temporal lobe) of a patient with Alzheimer's disease was incubated together with each of [^18F]E3, [^18F]D3, [^18F]E1, and [^18F]E2 (0.37 MBq/100 μL each) at room temperature for 1 hour. The resultant was washed with a 50 volume % ethanol aqueous solution (2 minutes×2) and water (2 minutes×2), and after drying, the section was contacted with BAS imaging plate (from Fujifilm Corporation) for 1.5 hours. The image of autoradiography was obtained using BAS5000 scanner system (from Fujifilm Corporation).
# A section adjacent to the brain section used was immunostained in the following manner.
# First, a paraffin-embedded brain section of the Alzheimer's disease patient (temporal lobe, 6 μm in thickness) was incubated with xylene (15 minutes×2), ethanol (1 minute×2), a 90 volume % ethanol aqueous solution (1 minute×2), and a 70 volume % ethanol aqueous solution (1 minute×1) in that order for complete deparaffinization, and then washed in water (2.5 minutes×2). Thereafter, the section was subjected to autoclave treatment for 15 minutes in 0.01 mol/L citrate buffer solution (pH 6.0). The resultant was incubated in PBS-Tween20 (5 minutes×2), and a mouse anti-Aβ1-42 primary monoclonal antibody (from Wako Pure Chemical Industries Ltd.) was then added thereto, which was then incubated at room temperature overnight. The resultant was incubated in PBS-Tween20 (2 minutes×3), and a biotin-goat anti-mouse IgG (from Funakoshi Co., Ltd.) was then added thereto, which was then incubated at room temperature for 1 hour. The resultant was incubated in PBS-Tween20 (5 minutes×3), and a streptavidin-peroxidase complex (from Funakoshi Co., Ltd.) was added thereto, which was then incubated at room temperature for 30 minutes. In addition, the resultant was incubated in PBS-Tween20 (2 minutes×3); 3,3′-diaminobenzidine was added thereto, which was then incubated at room temperature for 30 minutes; and after washing with water, the section was observed under a microscope to provide an immunostained image (FIG. 10).
# [2] = In vivo radioactivity distribution experiment (Example 8); conditions: ddY mice, tail vein, SD in parenthesis
# Procedure: Through the tail vein of ddY mice (male, 5 week-old) was injected each of a 10 volume % ethanol-containing saline solution of [^18F]E3 (45.4 kBq, 100 μL), a 10 volume % ethanol-containing saline solution of [^18F]D3 (38.2 kBq, 100 μL), a 10 volume % ethanol-containing saline solution of [^18F]E1 (45.1 kBq, 100 μL), and a 10 volume % ethanol-containing saline solution of [^18F]E2 (40.6 kBq, 100 μL). Five mice were used for each group and sacrificed 2, 10, 30, and 60 minutes after administration to remove major organs. The blood and organs were weighed and further measured for radioactivity using a γ counter. The amount of radioactivity per unit mass was measured in each organ to evaluate radioactivity distribution.
compound,measurement,setting,value
"4-(7-(2-[^18F]Fluoroethoxy)quinoxalin-2-yl)-N,N-dimethylaniline [[^18F]E3]",visualization of gray matter / amyloid plaques by autoradiography,[1],amyloid plaques were visualized
same,"Radioactivity Amount, Blood",[2]; 2 min. after,2.26 (0.21) % injected dose/g
same,"Radioactivity Amount, Blood",[2]; 10 min. after,1.91 (0.68) % injected dose/g
same,"Radioactivity Amount, Blood",[2]; 30 min. after,2.42 (0.17) % injected dose/g
same,"Radioactivity Amount, Blood",[2]; 60 min. after,2.38 (0.25) % injected dose/g
same,"Radioactivity Amount, Bone",[2]; 2 min. after,2.45 (0.43) % injected dose/g
same,"Radioactivity Amount, Bone",[2]; 10 min. after,2.20 (0.09) % injected dose/g
same,"Radioactivity Amount, Bone",[2]; 30 min. after,2.10 (0.39) % injected dose/g
same,"Radioactivity Amount, Bone",[2]; 60 min. after,2.02 (0.36) % injected dose/g
same,"Radioactivity Amount, Brain",[2]; 2 min. after,5.78 (0.60) % injected dose/g
same,"Radioactivity Amount, Brain",[2]; 10 min. after,3.82 (0.33) % injected dose/g
same,"Radioactivity Amount, Brain",[2]; 30 min. after,1.85 (0.09) % injected dose/g
same,"Radioactivity Amount, Brain",[2]; 60 min. after,1.48 (0.07) % injected dose/g
same,"Radioactivity Amount, Heart",[2]; 2 min. after,6.12 (0.79) % injected dose/g
same,"Radioactivity Amount, Heart",[2]; 10 min. after,3.48 (0.56) % injected dose/g
same,"Radioactivity Amount, Heart",[2]; 30 min. after,2.43 (0.12) % injected dose/g
same,"Radioactivity Amount, Heart",[2]; 60 min. after,2.22 (0.08) % injected dose/g
same,"Radioactivity Amount, Intestine",[2]; 2 min. after,3.24 (0.43) % injected dose/g
same,"Radioactivity Amount, Intestine",[2]; 10 min. after,7.95 (1.28) % injected dose/g
same,"Radioactivity Amount, Intestine",[2]; 30 min. after,16.2 (1.71) % injected dose/g
same,"Radioactivity Amount, Intestine",[2]; 60 min. after,17.9 (3.64) % injected dose/g
same,"Radioactivity Amount, Kidney",[2]; 2 min. after,8.65 (0.88) % injected dose/g
same,"Radioactivity Amount, Kidney",[2]; 10 min. after,5.19 (0.88) % injected dose/g
same,"Radioactivity Amount, Kidney",[2]; 30 min. after,3.30 (0.27) % injected dose/g
same,"Radioactivity Amount, Kidney",[2]; 60 min. after,3.51 (1.21) % injected dose/g
same,"Radioactivity Amount, Liver",[2]; 2 min. after,11.9 (1.35) % injected dose/g
same,"Radioactivity Amount, Liver",[2]; 10 min. after,11.7 (0.80) % injected dose/g
same,"Radioactivity Amount, Liver",[2]; 30 min. after,7.11 (1.56) % injected dose/g
same,"Radioactivity Amount, Liver",[2]; 60 min. after,5.30 (0.82) % injected dose/g
same,"Radioactivity Amount, Lung",[2]; 2 min. after,5.74 (0.48) % injected dose/g
same,"Radioactivity Amount, Lung",[2]; 10 min. after,4.02 (0.32) % injected dose/g
same,"Radioactivity Amount, Lung",[2]; 30 min. after,2.80 (0.15) % injected dose/g
same,"Radioactivity Amount, Lung",[2]; 60 min. after,2.20 (0.14) % injected dose/g
same,"Radioactivity Amount, Pancreas",[2]; 2 min. after,6.82 (0.80) % injected dose/g
same,"Radioactivity Amount, Pancreas",[2]; 10 min. after,3.51 (0.37) % injected dose/g
same,"Radioactivity Amount, Pancreas",[2]; 30 min. after,2.31 (0.19) % injected dose/g
same,"Radioactivity Amount, Pancreas",[2]; 60 min. after,1.60 (0.18) % injected dose/g
same,"Radioactivity Amount, Spleen",[2]; 2 min. after,3.67 (0.40) % injected dose/g
same,"Radioactivity Amount, Spleen",[2]; 10 min. after,2.89 (0.37) % injected dose/g
same,"Radioactivity Amount, Spleen",[2]; 30 min. after,2.31 (0.21) % injected dose/g
same,"Radioactivity Amount, Spleen",[2]; 60 min. after,1.74 (0.05) % injected dose/g
same,"Radioactivity Amount, Stomach*",[2]; 2 min. after,1.07 (0.20) % injected dose per organ
same,"Radioactivity Amount, Stomach*",[2]; 10 min. after,2.54 (0.88) % injected dose per organ
same,"Radioactivity Amount, Stomach*",[2]; 30 min. after,2.02 (0.63) % injected dose per organ
same,"Radioactivity Amount, Stomach*",[2]; 60 min. after,1.42 (0.22) % injected dose per organ
"Nc1ccc(-c2cnc3ccc(OCC[18F])cc3n2)cc1 [[^18F]E1, 4-(7-(2-[^18F]Fluoroethoxy)quinoxalin-2-yl)aniline]",visualization of gray matter / amyloid plaques by autoradiography,[1],did not visualize the gray matter but rather strongly visualized the white matter
same,"Radioactivity Amount, Liver",[2]; 2 min. after,9.18 (1.45) % injected dose/g
same,"Radioactivity Amount, Liver",[2]; 10 min. after,12.1 (1.82) % injected dose/g
same,"Radioactivity Amount, Liver",[2]; 30 min. after,8.76 (1.01) % injected dose/g
same,"Radioactivity Amount, Liver",[2]; 60 min. after,6.52 (0.93) % injected dose/g
"CNc1ccc(-c2cnc3ccc(OCC[18F])cc3n2)cc1 [[^18F]E2, 4-(7-(2-[^18F]Fluoroethoxy)quinoxalin-2-yl)-N-methylaniline]",visualization of gray matter / amyloid plaques by autoradiography,[1],did not visualize the gray matter but rather strongly visualized the white matter
same,"Radioactivity Amount, Blood",[2]; 2 min. after,3.37 (0.46) % injected dose/g
same,"Radioactivity Amount, Blood",[2]; 10 min. after,3.83 (1.24) % injected dose/g
same,"Radioactivity Amount, Blood",[2]; 30 min. after,3.10 (0.34) % injected dose/g
same,"Radioactivity Amount, Blood",[2]; 60 min. after,3.40 (0.32) % injected dose/g
same,"Radioactivity Amount, Bone",[2]; 2 min. after,1.86 (0.53) % injected dose/g
same,"Radioactivity Amount, Bone",[2]; 10 min. after,1.91 (0.54) % injected dose/g
same,"Radioactivity Amount, Bone",[2]; 30 min. after,2.07 (3.97) % injected dose/g
same,"Radioactivity Amount, Bone",[2]; 60 min. after,2.36 (1.16) % injected dose/g
same,"Radioactivity Amount, Brain",[2]; 2 min. after,5.96 (0.48) % injected dose/g
same,"Radioactivity Amount, Brain",[2]; 10 min. after,3.77 (0.40) % injected dose/g
same,"Radioactivity Amount, Brain",[2]; 30 min. after,2.18 (0.22) % injected dose/g
same,"Radioactivity Amount, Brain",[2]; 60 min. after,1.91 (0.15) % injected dose/g
same,"Radioactivity Amount, Heart",[2]; 2 min. after,7.42 (0.53) % injected dose/g
same,"Radioactivity Amount, Heart",[2]; 10 min. after,4.41 (0.17) % injected dose/g
same,"Radioactivity Amount, Heart",[2]; 30 min. after,8.53 (12.0) % injected dose/g
same,"Radioactivity Amount, Heart",[2]; 60 min. after,3.92 (0.64) % injected dose/g
same,"Radioactivity Amount, Intestine",[2]; 2 min. after,3.46 (0.75) % injected dose/g
same,"Radioactivity Amount, Intestine",[2]; 10 min. after,12.5 (2.77) % injected dose/g
same,"Radioactivity Amount, Intestine",[2]; 30 min. after,20.3 (2.55) % injected dose/g
same,"Radioactivity Amount, Intestine",[2]; 60 min. after,22.1 (2.95) % injected dose/g
same,"Radioactivity Amount, Kidney",[2]; 2 min. after,11.8 (2.51) % injected dose/g
same,"Radioactivity Amount, Kidney",[2]; 10 min. after,7.55 (0.36) % injected dose/g
same,"Radioactivity Amount, Kidney",[2]; 30 min. after,3.92 (0.45) % injected dose/g
same,"Radioactivity Amount, Kidney",[2]; 60 min. after,3.12 (0.41) % injected dose/g
same,"Radioactivity Amount, Liver",[2]; 2 min. after,6.84 (1.50) % injected dose/g
same,"Radioactivity Amount, Liver",[2]; 10 min. after,11.7 (0.58) % injected dose/g
same,"Radioactivity Amount, Liver",[2]; 30 min. after,7.95 (1.32) % injected dose/g
same,"Radioactivity Amount, Liver",[2]; 60 min. after,6.95 (0.68) % injected dose/g
same,"Radioactivity Amount, Lung",[2]; 2 min. after,6.71 (0.24) % injected dose/g
same,"Radioactivity Amount, Lung",[2]; 10 min. after,4.98 (0.56) % injected dose/g
same,"Radioactivity Amount, Lung",[2]; 30 min. after,3.34 (0.55) % injected dose/g
same,"Radioactivity Amount, Lung",[2]; 60 min. after,4.06 (0.99) % injected dose/g
same,"Radioactivity Amount, Pancreas",[2]; 2 min. after,5.42 (0.13) % injected dose/g
same,"Radioactivity Amount, Pancreas",[2]; 10 min. after,4.91 (0.95) % injected dose/g
same,"Radioactivity Amount, Pancreas",[2]; 30 min. after,2.60 (0.25) % injected dose/g
same,"Radioactivity Amount, Pancreas",[2]; 60 min. after,2.73 (0.31) % injected dose/g
same,"Radioactivity Amount, Spleen",[2]; 2 min. after,2.71 (0.44) % injected dose/g
same,"Radioactivity Amount, Spleen",[2]; 10 min. after,4.53 (0.62) % injected dose/g
same,"Radioactivity Amount, Spleen",[2]; 30 min. after,3.33 (0.66) % injected dose/g
same,"Radioactivity Amount, Spleen",[2]; 60 min. after,3.17 (0.62) % injected dose/g
same,"Radioactivity Amount, Stomach*",[2]; 2 min. after,1.13 (0.18) % injected dose per organ
same,"Radioactivity Amount, Stomach*",[2]; 10 min. after,2.11 (0.55) % injected dose per organ
same,"Radioactivity Amount, Stomach*",[2]; 30 min. after,1.56 (0.34) % injected dose per organ
same,"Radioactivity Amount, Stomach*",[2]; 60 min. after,2.73 (2.44) % injected dose per organ

# Reference: US20140088306A1, “RADIOACTIVE FLUORINE-LABELED QUINOXALINE COMPOUND” (Nihon Medi-Physics Co., Ltd., priority 2012, published 2014)
